Laboratory results published in patent US20240108740A1, “THERAPEUTIC COMPOSITIONS INCLUDING SPN10 AND USES THEREOF” (Stealth BioTherapeutics Inc., priority 2022, published 2024).
Residues, ends and D or L forms follow the SMILES beside them.

Key:
[1] = tested on: anatomic zone of no-reflow; test: No re-flow phenomenon after PCI in humans; assay type: in vivo, human; conditions: at the time of reperfusion
Procedure: Study group. Men and women, 18 years of age or older, who present within 6 hours after the onset of chest pain, who have ST-segment elevation of more than 0.1 mV in two contiguous leads, and for whom the clinical decision is made to treat with PCI will be eligible for enrollment. Patients will be eligible for the study whether they are undergoing primary PCI or rescue PCI. Occlusion of the affected coronary artery (Thrombolysis in Myocardial Infarction [TIMI] flow grade 0) at the time of admission will also be a criterion for inclusion. Angiography and Revascularization. Left ventricular and coronary angiography will be performed with the use of standard techniques, just before revascularization. […] No re-flow will be assessed by one or more imaging techniques. Re-flow phenomenon will be assessed using myocardial contrast echocardiography, coronary angiography, myocardial blush, coronary doppler imaging, electrocardiography, nuclear imaging single-photon emission CT, using thallium or technetium-99 m, or PET. […] Post-contrast delayed enhancement will be used on day 4±1, day 30±3 and 6+1.5 months after successful PCI and stenting to quantify infracted myocardium. This will be defined quantitatively by an intensity of the myocardial post-contrast signal that is more than 2 SD above that in a reference region of remote, non-infarcted myocardium within the same slice. […]

vincristine-related pain = test: Treatment of vincristine-induced hyperalgesia in humans; assay type: in vivo, human; conditions: s.c., once daily for 14 days
Text: Patients will be recruited to the study as they present in clinic with chronic (>6 months' duration), spontaneous, ongoing, vincristine-related pain. Those enrolled will rate their daily maximum level of pain at 4 or greater on a visual analogue scale (VAS). The patients will be screened for their willingness to enroll in the study, and informed consent will be obtained. Healthy subjects will also be recruited for collection of comparison data. No subjects in either the patient or comparison group will have known risk factors for any other cause of peripheral neuropathy, including diabetes, AIDS, chronic alcoholism, or previous radiation exposure. […] Touch and Sharpness Detection Thresholds-Touch detection thresholds will be determined with von Frey monofilaments using the up/down method as previously reported. […] The force of the filament detected four consecutive times will be assigned as the touch detection threshold. Sharpness detection will be determined using weighted 30-gauge metal cylinders. […] The percentages of each reply will be calculated and then combined into group grand means for comparison. The 50% sharpness detection threshold will be calculated as the weighted needle that caused five or more sharp responses after 10 consecutive stimuli. Grooved Pegboard Test-Manual dexterity will be assessed with the grooved pegboard test. […]

For `N=C(N)NCCC[C@H](NC(=O)[C@@H](N)Cc1c[nH]c2ccccc12)C(=O)N[C@@H](Cc1c[nH]c2ccccc12)C(=O)N[C@@H](CCCCN)C(N)=O` [SPN10, H-L-Trp-L-Arg-L-Trp-L-Lys-NH2] (H-WRWK-NH2), the “anatomic zone of no-reflow versus placebo” value [1] was “smaller” and the hyperalgesia symptoms (vincristine-related pain) was “reduction”.
